# Measurements as given in patent US6043219A, “Broad spectrum chemotherapeutic peptide” (Kansas State University Research Foundation, priority 1997, dated 2000).
# “Also recorded” adds a separate entry of the source.
# Legend:
# Pasteurella multocida = assay: Inhibitory spectrum, bactericidal assay (plate method); assay type: cell-based
# C. renale [1] = settings: finally purified BacR1, 37° C., 5 h, A550
# S. aureus = assay: Inhibitory spectrum, S. aureus; assay type: cell-based, Staphylococcus aureus
# [2] = Stability of BacR1: residual activity by bactericidal assay (plate method) after treatments; assay type: physicochemical
# Procedure: 7A, p. 315-422. […] Appl. Microbiol. 21:943].
# The stability of BacR1 was assessed by determining the activity of BacR1 by bactericidal assay (plate method) after exposure to various temperatures, environmental conditions, and enzymes (Table 2). Solutions of finally purified BacR1 at a concentration of 640 AU/ml were used in these stability experiments. BacR1 samples were held at various temperatures for 15 min, were held at pHs ranging from 3 to 11 at room temperature for 1 h, were incubated in 6M urea at room temperature for 1 h, or were incubated with 1 mg/ml of enzyme at room temperature for 1 h.
# C. renale [3] = assay: Effect of BacR1 on viability of C. renale (A550 and viable cell counts over time); assay type: cell-based, Corynebacterium renale
# Procedure: FIG. 9 includes a pair of graphs illustrating the effect of BacR1 on the viability C. renale; the A550 of a culture of control cells (-.circle-solid.-) and a culture of cells incubated with BacR1 at a concentration of 100 AU/ml (-.box-solid.-) was measured at respective times;
# FIG. 10 includes a pair of graphs illustrating the effect of BacR1 on the viability C. renale; viable cell counts for a culture of control cells (-.circle-solid.-) and a culture of cells incubated with BacR1 at a concentration of 100 AU/ml (-.box-solid.-) were determined at respective times.
# BacR1 kills C. renale in a dose-dependent fashion, with a MIC50 of approximately 6 AU/ml (FIG. 8). Furthermore, the killing is rapid in the absence of cell lysis as evidenced in FIGS. 9 and 10. No viable cells were detected after 120 min of exposure to BacR1. […] Such recovery would be observed with a bacteriostatic agent.
# [4] = system: Corynebacterium renale ATCC 19412; assay: Bactericidal assay of BacR1 (plate method)
# C. renale [5] = assay: SDS-PAGE bioassay (gel overlaid with top agar containing C. renale); assay type: cell-based, Corynebacterium renale; settings: finally purified BacR1
# Text: Purified preparations of BacR1 were subjected to electrophoretic analysis by SDS-PAGE. After electrophoresis, gels were either silver stained (Blum et al. 1987. Electrophoresis 8:93-99) or bioassayed using a slight modification of the method of Bhunia et al. (1987. J. Indust. Microbiol. 2:319-322). Briefly, each protein sample was electrophoresed in a 10-20% SDS-PAGE gradient gel (Bio-Rad, Richmond, Calif.) as previously described (Laemmli et al. 1970. Nature. 227:680-685). After electrophoresis, SDS was removed by soaking the gel in 20% isopropanol-10% acetic acid in water for 2 h, followed by rinsing in distilled water for 4 h. The gel was then placed on a BHT-80 agar plate and overlaid with BHT-80 top agar (0.7% agar) containing C. renale. After incubation at 37° C. overnight, the plate/gel combination was examined for zones of growth inhibition.
# [6] = system: methicillin-resistant S. aureus (MRSA) strains; assay: Additional analyses of the inhibitory spectrum; assay type: cell-based, Staphylococcus aureus; settings: ten MRSA strains tested
# Corynebacterium renale = assay: Inhibitory spectrum, bactericidal assay (plate method); assay type: cell-based; settings: C. renale compared with other sensitive organisms
# [7] = crude preparation, Rogolsky et al. paper; cited from earlier work
# Moraxella bovis = assay: Inhibitory spectrum, bactericidal assay (plate method); assay type: cell-based
# [8] = Preparative isoelectric focusing (Rotofor); assay type: physicochemical; settings: ammonium sulfate-precipitated culture supernatant, ampholytes pH 3-10, fractions 15 through 17
# Procedure: Isoelectric focusing of ammonium sulfate-precipitated culture supernatants of S. aureus UT0007 was carried out on a Rotofor isoelectric focusing cell (Bio-Rad, Richmond, Calif.) in order to define certain biophysical characteristics of BacR1. Concentrated culture supernatants were dialyzed overnight in 3,500 molecular-weight-cutoff dialysis tubing (SpectraPor, Los Angeles, Calif.) against 4 L distilled water at 4° C. The dialyzed sample was centrifuged at 9,000× g for 10 min at 4° C. to remove insoluble material, and the supernatant was diluted to a total volume of 55 ml with distilled water. Ampholytes (pH 3-10) (Fisher, St. Louis, Mo.) were added to a final concentration of 1% and the sample was loaded into the Rotofor cell for focusing at 12 W constant power at 4° C. The initial conditions were approximately 600 V and 35 mA; upon equilibrium the values were approximately 1200 V and 15 mA. Twenty individual fractions were harvested and the total protein, pH, and BacR1 activity for each fraction was determined.
# Streptococcus suis = assay: Inhibitory spectrum, bactericidal assay (plate method); assay type: cell-based
# Bordetella brochoseptica = assay: as above; assay type: cell-based; settings: B. bronchoseptica
# Bordetella pertussis = assay: as above; assay type: cell-based; settings: Bordatella pertussis
# Haemophilus parasuis = assay: as above; assay type: cell-based; settings: Hemophilus parasuis
# [9] = system: vancomycin-resistant strains of Enterococcus faecalis and E. faecium; assay: Additional analyses of the inhibitory spectrum; assay type: cell-based; settings: remainder varying degrees of resistance
substance,measurement,setting,value
BacR1: 26-mer proteinaceous bacteriocin of approximately 3.4 kilodaltons produced by S. aureus UT0007; peptide sequence SEQ ID No. 3 (LGGAATGVIGYISNQTCPTTACTRAC),sensitivity to BacR1 (in words),Pasteurella multocida,killed
same,MIC50 (concentration that caused a 50% inhibition of growth),C. renale [1],approximately 6 AU/ml
same,sensitivity to BacR1 (in words),S. aureus; S. aureus,killed
same,relative susceptibility,S. aureus; S. aureus compared with other sensitive organisms,"susceptible, but required higher doses"
same,% Residual Activity,"[2]; 4° C., 15 min, 640 AU/ml",100%
same,% Residual Activity,"[2]; 25° C., 15 min, 640 AU/ml",100%
same,% Residual Activity,"[2]; 37° C., 15 min, 640 AU/ml",100%
same,% Residual Activity,"[2]; -20° C., 15 min, finally purified BacR1 640 AU/ml",100%
same,% Residual Activity,"[2]; pH 3 to 11, room temperature, 1 h, 640 AU/ml",100%
same,exposure time after which no viable cells were detected,C. renale [3]; BacR1 100 AU/ml,120 min
same,mode of action (bactericidal vs bacteriostatic),"C. renale [3]; prolonged incubation, cells do not recover",bactericidal
same,Specific Activity,[4]; purification stage: Ammonium Sulfate,1259 AU/mg
same,Specific Activity,[4]; purification stage: C4 Reverse-Phase (1st cycle),"16,642 AU/mg"
same,Specific Activity,"[4]; purification stage: C4 Reverse-Phase (2nd cycle), finally purified","37,450 AU/mg"
same,Specific Activity,[4]; purification stage: Cation Exchange,6963 AU/mg
same,Specific Activity,[4]; purification stage: Supernatant (1 L),152 AU/mg
same,bactericidal activity in SDS-PAGE gel overlay,C. renale [5],possessed BacR1 activity
same,sensitivity to BacR1 (in words),[6],very sensitive
same,relative susceptibility,Corynebacterium renale,equally (and most) sensitive
same,maximum specific activity,[7],46 AU/mg
same,relative susceptibility,Moraxella bovis,equally (and most) sensitive
same,sensitivity to BacR1 (in words),Moraxella bovis; Moraxella bovis,especially sensitive
same,apparent average pI,[8],7.7
same,sensitivity to BacR1 (in words),Streptococcus suis,killed
same,sensitivity to BacR1 (in words),Bordetella brochoseptica,killed; also recorded: sensitive
same,sensitivity to BacR1 (in words),Bordetella pertussis,sensitive
same,sensitivity to BacR1 (in words),Haemophilus parasuis,sensitive
same,share of tested strains sensitive to BacR1,[9],About 40%
